Laboratory results from a melting point compilation (Tetko et al.; mined from patent text by program, amines drawn as free bases though some values may be those of a salt).

| melting point | SMILES |
| --- | --- |
| 276 to 278 °C | O=C(Nc1ccc(Br)cc1)Nn1cnc2c(O)cccc2c1=O |
| 172 to 173 °C | CC#CCOc1cc(/C=C/C(=O)Nc2cc(Cl)ccc2C(=O)NC)ccc1OC |
| 266 to 268 °C | Clc1ccc(-c2[nH]nc3c2Cc2ccccc2-3)cc1 |
| 77 to 80 °C | COC(=O)C(=Cc1ccc2c(c1)CCO2)N=[N+]=[N-] |
| 220 °C | COc1c(Cl)cc(C(=O)Nc2ccc(F)cc2)c(Nc2ccccc2)c1Cl |
| 200 °C | O=C(O)C1CSC(Cc2ccccc2)N1 (mixture of isomers) |
| 75 to 83 °C | CC(Oc1ccc2c(c1)C(O)C(Oc1cccnc1)CO2)c1ccc2ccccc2n1 (stereo not drawn) |
| 209 °C | O=c1c(Cl)c(-c2ccc3c(ccn3[C@H]3CC[C@H](O)CC3)c2)ccn1CC1CC1 |
| 184 to 185 °C | CCCn1c(=O)c2c(N)n(CC(=O)c3cccc(OC)c3)nc2n(Cc2ccccc2)c1=O |
| 54 to 56 °C | CC(C)(Oc1ccc(CCC(O)c2ccc(-c3ccc(C(F)(F)F)cc3)s2)c(Cl)c1Cl)C(=O)O (stereo not drawn) |
| 187 to 192 °C | C[C@@H](Nc1ncnc2cc(OCCO)c([N+](=O)[O-])cc12)c1ccccc1 |
| 118 to 119 °C | CCCc1c(OCC(O)CS(=O)(=O)c2ccc(CC(=O)OC)c(F)c2)ccc(C(C)=O)c1O (stereo not drawn) |
| 115 to 116 °C | CN(C)C=C(C(=O)c1ccccc1)c1ccc(F)cc1 |
| 185 to 187 °C | O=CNNc1ccc(NC(=O)c2cccc([N+](=O)[O-])c2)cc1 |
| 49 to 50 °C | CC(=O)/C=C(\C)c1ccc(C2CCCCC2)cc1 |
| 109 to 110 °C | O=C1CCCCC1C(C[N+](=O)[O-])c1ccc(Cl)c(Cl)c1 (racemic) |
| 102 to 105 °C | CCC1CCC(Oc2cc(F)cc(C(=O)Nc3ccc(OCCN4CCOCC4)c4ccccc34)c2)CC1 (stereo not drawn) |
| 208 to 210 °C | Cc1c(-c2cc(Nc3cc4n(n3)CCN(C)C4)c(=O)[nH]n2)cccc1N1Cc2ccc(C(C)(C)C)cc2C1=O |

| melting point | SMILES |
| --- | --- |
| 74 to 75 °C | COCCN(CCOC)c1nc(C)[nH]c2c(-c3ccc(Cl)cc3Cl)nc(C)c1-2 |
| 222 to 223 °C | CCOC(=O)C1(C(=O)OCC)Oc2ccc(CN/C=C3\C(=O)NC(=O)c4ccc(Br)cc43)cc2O1 |
| 60 to 62 °C | CCOC(=O)CN(CC(=O)OCC)C(=O)c1cc(OCCCCCCOc2ccc(-c3ccccc3)cc2)ccc1OCc1ccccc1 |
| 151 to 154 °C | CC(C)CN(C=NS(=O)(=O)c1c(Cl)nc2ccc(Cl)nn12)CC(C)C |
| 185 °C | CCCCCCCCCCCCCCCCOC(=O)Nc1ccc(NC(=O)NS(=O)(=O)c2ccc(OC)cc2)cc1 |
| 182 °C | COCCOc1ccc2[nH]c(=O)n(C3CCCCC3)c2c1 |
| > 270 °C | O=C(O)c1ccc(OC(F)F)c2oc3ccc([N+](=O)[O-])cc3c12 |
| 256 to 258 °C | Cc1cc(F)c2ncc(C(=O)NNc3ccc(Cl)cc3)c(O)c2c1 |
| 109 °C | CCCCCCCCCCCNC(=O)N(C)CC(O)C(O)C(O)C(O)CO (stereo not drawn) |
| 188 to 190 °C | O=C1Cc2cc(C(F)(F)F)ccc2N1 |
| 98 to 99 °C | CCOC(=O)c1ccc(-c2nn(Cc3ccccc3)c3ccccc23)o1 |
| 150 to 153 °C | Cc1[nH]c2ccccc2c1C(=O)NC1CCN(Cc2ccccc2)CC1 |
| 168 to 170 °C | Cc1ccc(C(=O)Cn2c(=O)sc3ccccc32)cc1 |
| > 300 °C | CCn1ncc2c3[nH]c4cc(C)nn4c(=O)c3cnc21 |
| 59 to 60 °C | C=CCOC(=O)CC(=O)NC1C(=O)N2C1SC(C)(C)C2C(=O)OCC=C (stereo not drawn) |
| > 300 °C | Oc1nc2cc(Cl)c3nc[nH]c3c2nc1O |
| 61 to 63 °C | CCOC(=O)CCc1oc2cccc(O)c2c1C |

| SMILES | melting point |
| --- | --- |
| COc1ccc2c(c1)c(C(=O)OCc1ccccc1)nn2Cc1ccccc1 | 107 to 109 °C |
| O=C(O)C(=O)NCCC(F)=C(F)F | 95 to 100 °C |
| CCOC(=O)c1ncn2c1CN(C)C(=O)c1cc([N+](=O)[O-])ccc1-2 | 197 to 199 °C |
